Test: gradient 5% acetonitrile 3 min, to 50% in 2 min, to 85% in 15 min, held 3 min, 100 µL/min
Conditions: column: Zorbax Extend-C18 2.1 x 50 mm; eluents: water / acetonitrile, 0.1% formic acid
Procedure, shortened: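 Standards, all pure, were combined into mixtures of ~100 molecules and run at 100 μL/min on a Zorbax Extend-C18 column (2.1 × 50 mm, 1.8 μm) with water and acetonitrile, each containing 0.1% formic acid. A coupled quadrupole time-of-flight mass spectrometer operated in positive and negative ionization mode. Retention time values come from computationally picked adduct peaks, each inspected manually.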

SMILES	RP-LC retention time
CC(C)CCNC(=O)C1(C)Cn2nc(C(=O)NCC(C)c3ccccc3)cc2C(=O)N1C (stereo not drawn)	833 s
CC1CCN(C(=O)C2c3ccccc3CCN2CC(=O)NCc2ccccc2)CC1 (stereo not drawn)	900 s
CC1=C(C(=O)Nc2ccccc2F)C2(CCN(C(C)C)CC2)OC1=O	613 s
O=C(Nc1ccccc1F)N1CCC(CCNC(=O)C2(c3ccccc3)CC2)CC1	889 s
CSc1ncccc1C(=O)NCc1nn(C(C)C)c2ccccc12	830 s
Cn1nc(C(=O)Nc2cccnc2)ccc1=O	493 s
COc1ccc(NC(=O)C2CC(=O)N(c3ccc4c(c3)CCN4C(=O)C3CC3)C2)cc1F (stereo not drawn)	770 s
CC1CCN(CCCNc2ccc(-c3nc(-c4ccc(F)cc4)no3)cn2)CC1	740 s
CCc1cc(C(=O)Nc2cc(C)cc(C)c2)nc2ccnn12	1140 s
COCC1CN(S(=O)(=O)Cc2ccccc2F)CC12CCNCC2 (stereo not drawn)	575 s
COCC(=O)N(C1CCOCC1)C1CCN(S(=O)(=O)c2ccccc2)CC1	727 s
Cc1ccc(CNC(=O)c2c(-c3cccc(Br)c3)noc2C)o1	987 s
Cc1ccc(CNC(=O)C2(C)Cn3nc(C(=O)NCc4ccccc4)cc3C(=O)N2C)cc1 (stereo not drawn)	766 s
CCN1C(=O)C(C)(C)COc2cc(NC(=O)Nc3ccccc3C(F)(F)F)ccc21	943 s
CC(=O)NCC(=O)NCc1nn(CC(C)C)c2ccccc12	670 s
Cc1cc(C)n2nc(SCC(=O)NC3CCCCC3)nc2n1	693 s
CCSc1nnc(-c2nn(C)c3c2CN(C(=O)c2ccc(F)c(F)c2)CC3)n1C	763 s
O=C(NCCc1csc(-c2ccccc2)n1)C1CCN(S(=O)(=O)c2cccs2)CC1	776 s
Cc1noc(C2CN(C(=O)CCCc3ccccc3)CC23CCOCC3)n1 (stereo not drawn)	736 s

SMILES	RP-LC retention time
CCS(=O)(=O)NCC(c1cccnc1)N1CCN(c2ccccc2F)CC1 (stereo not drawn)	561 s
Cc1noc(C2CN(C(=O)c3n[nH]c4ccccc34)CC23CCN(C)CC3)n1 (stereo not drawn)	1010 s
COC(=O)c1ccc(NC(=O)c2[nH]c3cc(C)sc3c2CN(C)C)cc1	670 s
CCOC(=O)CC1(NC(=O)N2CCc3c(c(C(=O)N4CCCCC4)nn3C)C2)CCCCC1	810 s
Cc1ccccc1-c1noc(Cn2c(=O)n(Cc3cccc(Cl)c3)c(=O)c3sccc32)n1	819 s
CN1C(=O)c2cc(C(=O)NCCc3ccccc3)nn2CC1(C)C(=O)NC1CCCCCC1 (stereo not drawn)	795 s
CCCNC(=O)C1CCN(S(=O)(=O)c2cc(-c3noc(CC)n3)cs2)CC1	830 s
O=c1c2c(CO)c(-c3ccccc3)nn2ccn1Cc1cccc(C(F)(F)F)c1	996 s
O=C(NC(=O)N1CCN(Cc2ccccc2)CC1)c1ccccc1	549 s
Cc1c(C(=O)NCC2CC2)cnn1-c1cc(-c2nc(C3CC3)no2)ccn1	909 s
C[C@@H]1CCO[C@H]2Cn3cc(C(=O)NCc4ccc(F)cc4F)c(=O)c(O)c3C(=O)N12	808 s
CN1C(=O)c2cc(C(=O)NCc3ccc(Cl)cc3)nn2CC1(C)C(=O)NCc1ccccc1 (stereo not drawn)	832 s
O=C1COc2cc(S(=O)(=O)N3CCCC3C(=O)N3CCOCC3)c(Cl)cc2N1 (stereo not drawn)	628 s
CCOc1nccnc1NC1CCN(C(=O)c2ccn(CC)n2)CC1	669 s
Cc1nc(C)c(-c2nnc(NC(=O)c3ccc(F)cc3F)o2)s1	663 s
Cc1ccc(CNC(=O)N2CCc3c(c(-c4nc(C)no4)nn3C)C2)cc1	738 s
COc1ccc(NC(=O)Cn2c(=O)c(CCC(=O)NC3CCCC3)nc3ccccc32)c(OC)c1	792 s
Cc1[nH]c2ccccc2c1S(=O)(=O)CCNC(=O)Nc1cccs1	683 s
COC(=O)C1=CN(c2ccc(F)c(F)c2)c2ccc(F)cc2S1(=O)=O	854 s

SMILES	RP-LC retention time
CC(C)CN1CCn2cc(S(=O)(=O)Nc3ccc(F)cc3Cl)cc2C1=O	838 s
Cc1c(C(=O)N(C)C)cc(-c2ccccc2)n1C	812 s
Cc1sc(C)c(S(=O)(=O)N2CCC(C)CC2)c1-c1cc(C(F)(F)F)on1	1320 s
Cc1ccccc1NS(=O)(=O)c1c(C)c(-c2nnc(C3CCC3)o2)n(C)c1C	966 s
CCn1nccc1-c1cccc(-c2noc(COc3ccc(Cl)cc3)n2)c1	1200 s
COc1ccc2c(c1)c(CN1CCC(N3C[C@H](OC)[C@@H]3c3cccnc3)CC1)cn2C(C)C	596 s
NS(=O)(=O)c1ccc(CCNC(=O)c2ccc(=O)[nH]n2)cc1	542 s
Cc1ccn2c(=O)c(C(=O)Nc3nc(C)cs3)cnc2c1	673 s
CCCS(=O)(=O)NCCn1c(C)cnc1-c1ccccc1	566 s
CCOCC(=O)N1CC(c2nc(-c3ccc(F)cc3)no2)C2(CCOCC2)C1 (stereo not drawn)	771 s
Cc1ccc(F)c(NC(=O)Cn2cc(-c3nnc(C)o3)ccc2=O)c1	805 s
O=c1n(CCOc2ccccc2)nc2c(S(=O)(=O)N3CCCC3)cccn12	794 s
O=C1[C@H]2CN(Cc3ccc(Cl)c(F)c3)C[C@H]2C(=O)N1CCc1ccccc1	901 s
CCCN1C(=O)C(CC(=O)NCC2CCCO2)Sc2ncccc21 (stereo not drawn)	663 s
CCOC(=O)c1cc(S(=O)(=O)N2CCCC2C(=O)N(CC)c2cccc(C)c2)cn1C (stereo not drawn)	943 s
CCOC(=O)c1sc(NC(=O)Cn2nc3c(cc2=O)CCCC3)nc1C	764 s
CCC(=O)N1c2ccc(S(=O)(=O)N3CCCCC3)cc2CC1C(=O)NC1CCCCCC1 (stereo not drawn)	1010 s
CCOc1ccc(NC(=O)c2cccc(N3CCNC(c4ccccc4)C3)n2)cc1 (stereo not drawn)	700 s

Other lines, results leading:

RP-LC retention time	SMILES
1080 s	CCn1cc(-c2nc(C(=O)N3CCc4ccccc43)cs2)c2cccnc21
923 s	Cc1ccc(CNC(=O)c2nnc(-c3ccc(S(=O)(=O)N4CCC(C)CC4)cc3)o2)o1
882 s	O=C(COc1ccc(F)cc1)Nc1cc(F)c2nc(N3CCOCC3)ccc2c1
679 s	Cc1ccn2cc(C(=O)NCc3ccc4c(c3)OCO4)nc2c1
1240 s	Cc1cc(S(=O)(=O)N2CCCC2c2nc(-c3cccc(Cl)c3)no2)ccc1F (stereo not drawn)
702 s	Cn1nc(C(=O)Nc2ccccc2)c2c1CCN(C(=O)NCC1CCCO1)C2 (stereo not drawn)
661 s	O=C(c1ccco1)N1CCCn2cc(-c3ccc4c(c3)OCO4)nc21
618 s	Cc1cccc(CNC(=O)C2(C)Cn3cnc(C(=O)N4CCOCC4)c3C(=O)N2C2CC2)c1 (stereo not drawn)
835 s	O=C(NCC(=O)N1CCCc2ccccc21)c1ccc(Cl)cc1
888 s	Cc1ccc(-c2ccc(N3CCCC(C(=O)NCCC4=CCCCC4)C3)nn2)cc1C (stereo not drawn)
640 s	Cc1ccc(NC(=O)c2ccc(CN3CCN(C)CC3)cc2)cc1Nc1nccc(-c2cccnc2)n1
821 s	Cc1cccc(S(=O)(=O)N2CCCC(Cn3c(C)nc4cccnc43)C2)c1 (stereo not drawn)
972 s	COc1ccccc1-c1noc(C2CCCN2C(=O)Nc2ccccc2Br)n1 (stereo not drawn)
570 s	CN(C)C(=O)c1cc2c(s1)CCC(C(=O)N1CCN(c3ccccn3)CC1)C2 (stereo not drawn)
1080 s	COc1ccc(Cl)cc1NC(=O)Cn1nc(N2CCSCC2)c2ccccc2c1=O
614 s	O=C(NCc1ccccn1)C(=O)c1cn(CC(=O)N2CCOCC2)c2ccccc12

RP-LC retention time	SMILES
973 s	O=C(NC1CCCCCC1)c1ccc2ccnc(N3CCN(c4ccc(F)cc4)CC3)c2c1
708 s	Cc1ccc(C(=O)NC2CCN(c3cc(-c4ccccc4)[nH]n3)C2)s1 (stereo not drawn)
758 s	COc1ccc(-c2cc3c4nn(CC(=O)NC(C)C)c(=O)n4ccn3n2)cc1
775 s	CCNC(=O)N1CCCC(c2cccc(C(=O)NCc3ccccc3C)c2)C1 (stereo not drawn)
703 s	Cc1ccn2c(NC(=O)CCc3ccccc3)c(-c3ccc(F)cc3)nc2c1
673 s	O=C1CCCN1c1ccc(Cn2nc3c(S(=O)(=O)N4CCCC4)cccn3c2=O)cc1
720 s	COc1cc([C@@H]2c3cc4c(cc3[C@H](O)[C@@H](CO)[C@@H]2C(=O)N2CCN(c3ccc(F)cc3)CC2)OCO4)cc(OC)c1OC
1110 s	Cc1nc(-n2cccc2)sc1C(=O)N1CC(c2nc(-c3cccc(Cl)c3)no2)C1
828 s	COc1ccc(-c2nc(NCCCN3CCN(C)CC3)c3ccccc3n2)cc1
1070 s	O=C1COc2cc(Cl)ccc2N1Cc1nc(-c2ccc3c(c2)OCO3)no1
1130 s	CSc1ccc(-c2noc(Cn3ncn4nc(-c5cccs5)cc4c3=O)n2)cc1
1230 s	CCCN1C(=O)COc2cc(-c3noc(C(=O)N4CCN(c5cccc(Cl)c5)CC4)n3)ccc21
632 s	CCc1ccc(Nc2nc(C(=O)NCCN3CCCC3)nc3ccccc23)cc1
590 s	c1cncc(-c2nc(-c3ccnc(N4CCCC4)c3)no2)c1
581 s	Cc1ccccc1Cn1cc(-c2ccncc2)cc1C(=O)NCc1cccnc1
1320 s	Cc1c(-c2ccnc(N3CCC(C)CC3)n2)cnc2nc(-c3ccccc3)nn12

— the METLIN SMRT retention time set (Domingo-Almenara et al. 2019)
